This is an account of results in ChEMBL document CHEMBL1147165, “Synthesis and alpha(1)-adrenoceptor antagonist activity of derivatives and isosters of the furan portion of (+)-cyclazosin” (Bioorg Med Chem, 2007).

Test [1] concerns the target T1, Alpha-1D adrenergic receptor (Homo sapiens, UniProt P25100).
T1 sequence (P25100 whole entry): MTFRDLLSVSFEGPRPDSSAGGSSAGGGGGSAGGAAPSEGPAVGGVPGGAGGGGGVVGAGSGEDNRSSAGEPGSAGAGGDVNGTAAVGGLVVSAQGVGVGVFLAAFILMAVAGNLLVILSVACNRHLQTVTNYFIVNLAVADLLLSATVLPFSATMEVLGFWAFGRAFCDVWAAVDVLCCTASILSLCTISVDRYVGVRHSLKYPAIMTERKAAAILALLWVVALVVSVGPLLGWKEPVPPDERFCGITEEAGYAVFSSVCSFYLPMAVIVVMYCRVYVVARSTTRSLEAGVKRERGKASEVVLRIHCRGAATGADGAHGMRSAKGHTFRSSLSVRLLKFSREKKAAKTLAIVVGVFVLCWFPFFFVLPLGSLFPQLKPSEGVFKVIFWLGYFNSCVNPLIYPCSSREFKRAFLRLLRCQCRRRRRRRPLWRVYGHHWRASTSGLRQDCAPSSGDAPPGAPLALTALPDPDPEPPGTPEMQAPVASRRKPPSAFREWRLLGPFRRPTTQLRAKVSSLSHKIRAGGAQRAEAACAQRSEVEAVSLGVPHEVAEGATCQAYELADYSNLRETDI
As to the kind of experiment: Displacement of [3H]prazosin from human adrenergic alpha-1d receptor expressed in CHO cells. Type of test: cell-based.

For test [2], the target named is Adrenergic receptors; alpha-1 A & B (Homo sapiens) (UniProt P35348+P35368). As to the kind of experiment: Selectivity ratio of pKi for human adrenergic alpha-1a receptor to pKi for human adrenergic alpha-1b receptor. Type of test: protein assay.
In test [3] the target is T2, Alpha-1A adrenergic receptor (Homo sapiens, UniProt P35348).
T2 sequence (P35348 whole entry): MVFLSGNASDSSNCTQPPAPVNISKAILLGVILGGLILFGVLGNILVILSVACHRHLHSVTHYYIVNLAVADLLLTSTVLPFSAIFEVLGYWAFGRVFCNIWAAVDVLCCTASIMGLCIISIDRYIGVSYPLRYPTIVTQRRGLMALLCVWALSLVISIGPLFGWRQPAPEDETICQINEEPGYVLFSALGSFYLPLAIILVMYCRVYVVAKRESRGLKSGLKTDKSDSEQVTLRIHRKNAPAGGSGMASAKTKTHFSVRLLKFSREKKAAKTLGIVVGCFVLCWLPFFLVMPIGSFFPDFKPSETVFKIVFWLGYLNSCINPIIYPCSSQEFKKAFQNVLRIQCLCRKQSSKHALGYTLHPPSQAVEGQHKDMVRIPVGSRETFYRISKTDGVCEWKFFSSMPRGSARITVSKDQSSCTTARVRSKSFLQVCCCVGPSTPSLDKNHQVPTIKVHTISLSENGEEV
Nature of the test: Displacement of [3H]prazosin from human adrenergic alpha-1a receptor expressed in CHO cells. Type of test: cell-based. On the technique in general: Displacement assays read how much labelled ligand stays bound in the presence of the test substance.

For test [4], the target named is T3, Alpha-1B adrenergic receptor (Homo sapiens, UniProt P35368).
T3 sequence (P35368 whole entry): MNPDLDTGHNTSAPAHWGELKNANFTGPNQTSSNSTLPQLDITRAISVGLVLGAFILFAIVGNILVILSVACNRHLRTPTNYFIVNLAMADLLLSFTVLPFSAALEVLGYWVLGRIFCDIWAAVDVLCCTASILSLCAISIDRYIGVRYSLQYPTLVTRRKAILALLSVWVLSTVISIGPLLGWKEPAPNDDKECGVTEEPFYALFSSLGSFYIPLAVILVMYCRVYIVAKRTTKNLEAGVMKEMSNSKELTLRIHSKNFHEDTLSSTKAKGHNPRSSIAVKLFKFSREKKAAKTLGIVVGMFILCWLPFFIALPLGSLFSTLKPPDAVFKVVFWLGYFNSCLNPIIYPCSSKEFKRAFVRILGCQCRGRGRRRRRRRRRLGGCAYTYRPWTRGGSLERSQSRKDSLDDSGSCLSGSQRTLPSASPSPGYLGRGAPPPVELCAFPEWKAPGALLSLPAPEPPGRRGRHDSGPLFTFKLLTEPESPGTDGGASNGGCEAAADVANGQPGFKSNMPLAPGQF
Nature of the test: Displacement of [3H]prazosin from human adrenergic alpha-1b receptor expressed in CHO cells. The class given is cell-based.

The target of test [5] is T4, Alpha-1A adrenergic receptor (Rattus norvegicus) (UniProt P43140).
T4 sequence (whole entry): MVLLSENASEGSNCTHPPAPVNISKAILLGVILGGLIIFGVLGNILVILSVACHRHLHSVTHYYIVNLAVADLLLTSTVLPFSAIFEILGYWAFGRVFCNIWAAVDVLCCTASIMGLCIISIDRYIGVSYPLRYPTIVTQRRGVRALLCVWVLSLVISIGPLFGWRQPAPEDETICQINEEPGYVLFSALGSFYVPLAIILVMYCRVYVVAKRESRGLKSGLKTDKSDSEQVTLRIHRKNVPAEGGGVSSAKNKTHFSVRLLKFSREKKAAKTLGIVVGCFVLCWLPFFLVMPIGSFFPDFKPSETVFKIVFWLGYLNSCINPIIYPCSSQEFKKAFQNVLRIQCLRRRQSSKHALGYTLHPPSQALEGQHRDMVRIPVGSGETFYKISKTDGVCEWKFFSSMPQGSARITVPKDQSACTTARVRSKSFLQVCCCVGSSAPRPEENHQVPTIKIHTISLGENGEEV
Nature of the test: (§1) Antagonist activity against adrenergic alpha-1A receptor in rat prostatic vas deferens assessed as inhibition of noradrenaline-induced contraction. Type of test: functional, tissue-based.

Test [6] concerns the target Alpha adrenergic receptor (1a and 1d) (Homo sapiens) (UniProt P35348+P25100). As to the kind of experiment: Selectivity ratio of pKi for human adrenergic alpha-1a receptor to pKi for human adrenergic alpha1d receptor. Type of test: protein assay.
In test [7] the target is Alpha adrenergic receptor 1A and 1D (Rattus norvegicus) (UniProt P23944+P43140). As to the kind of experiment: Selectivity ratio for rat adrenergic alpha-1A receptor over rat adrenergic Alpha-1D receptor. The class given is functional.
For another test, the species on record is Homo sapiens. As to the kind of experiment: Selectivity ratio of pKi for human adrenergic alpha-1d receptor to pKi for human adrenergic alpha-1b receptor.
The target in test [8] is Alpha adrenergic receptor 1A and 1B (Rattus norvegicus) (UniProt P15823+P43140). As to the kind of experiment: Selectivity ratio for rat adrenergic alpha-1A receptor over rat adrenergic Alpha-1B receptor. The class given is functional.
Test [9] concerns the target T5, Alpha-1D adrenergic receptor (Rattus norvegicus, UniProt P23944).
T5 sequence (P23944 whole entry): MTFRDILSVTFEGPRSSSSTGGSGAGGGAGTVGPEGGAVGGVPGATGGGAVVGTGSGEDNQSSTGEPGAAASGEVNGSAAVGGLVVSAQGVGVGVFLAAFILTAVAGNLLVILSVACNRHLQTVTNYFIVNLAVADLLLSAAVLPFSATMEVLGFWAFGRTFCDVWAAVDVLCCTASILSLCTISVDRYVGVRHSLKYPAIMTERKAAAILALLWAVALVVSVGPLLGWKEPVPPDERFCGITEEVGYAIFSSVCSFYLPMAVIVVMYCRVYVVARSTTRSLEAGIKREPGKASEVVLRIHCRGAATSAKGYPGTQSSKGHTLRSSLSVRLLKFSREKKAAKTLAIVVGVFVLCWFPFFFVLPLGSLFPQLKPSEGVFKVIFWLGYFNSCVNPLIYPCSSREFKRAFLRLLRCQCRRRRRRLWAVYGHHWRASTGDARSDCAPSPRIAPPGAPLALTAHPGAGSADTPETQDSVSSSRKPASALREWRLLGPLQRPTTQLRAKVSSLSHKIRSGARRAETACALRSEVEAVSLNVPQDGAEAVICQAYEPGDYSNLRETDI
Nature of the test: (§2) Antagonist activity against adrenergic Alpha-1D receptor in rat thoracic aorta assessed as noradrenaline-induced response. Type of test: functional, tissue-based. The following applies: read-out: pA2 (converted).

A further test is filed under the species Rattus norvegicus. Nature of the test: Selectivity ratio for rat adrenergic Alpha-1D receptor over rat adrenergic Alpha-1B receptor. Type of test: functional.
For test [10], the target named is T6, Alpha-1B adrenergic receptor (Rattus norvegicus) (UniProt P15823).
T6 sequence (whole entry): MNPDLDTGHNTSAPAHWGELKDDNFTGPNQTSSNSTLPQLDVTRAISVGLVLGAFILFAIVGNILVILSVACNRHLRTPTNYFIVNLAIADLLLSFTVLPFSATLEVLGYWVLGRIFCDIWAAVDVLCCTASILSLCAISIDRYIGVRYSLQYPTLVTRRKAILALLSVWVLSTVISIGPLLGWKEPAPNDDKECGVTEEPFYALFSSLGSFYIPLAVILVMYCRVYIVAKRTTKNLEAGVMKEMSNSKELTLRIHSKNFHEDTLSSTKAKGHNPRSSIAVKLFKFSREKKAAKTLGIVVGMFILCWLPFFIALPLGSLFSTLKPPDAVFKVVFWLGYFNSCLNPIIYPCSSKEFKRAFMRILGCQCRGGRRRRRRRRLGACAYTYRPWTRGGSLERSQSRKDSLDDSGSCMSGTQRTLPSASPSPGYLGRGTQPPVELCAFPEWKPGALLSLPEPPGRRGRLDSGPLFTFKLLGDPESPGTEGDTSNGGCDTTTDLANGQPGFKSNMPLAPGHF
As to the kind of experiment: Antagonist activity against adrenergic Alpha-1B receptor in rat spleen assessed as inhibition of phenylephrine-induced response. Type of test: functional, tissue-based.

For test [11], the target named is T7, Alpha-1A adrenergic receptor (Rattus norvegicus, UniProt P43140).
T7 sequence (P43140 whole entry): T4 sequence (whole entry)
Described as §1. Type of test: functional, tissue-based. The following applies: read-out: pA2 (converted).

The target in test [12] is T8, Alpha-1D adrenergic receptor (Rattus norvegicus) (UniProt P23944).
T8 sequence (whole entry): T5 sequence (P23944 whole entry)
The description is as §2. Type of test: functional, tissue-based.

As a reminder, the Ki is a measure of affinity in units of concentration, obtained from inhibition or displacement. The term pKb denotes the Kb on a negative log10 scale, so that one unit is a factor of ten. As to `COc1cc2nc(N3CCN(C(=O)c4ccc(Br)o4)[C@H]4CCCC[C@H]43)nc(N)c2cc1OC`, the inhibitory constant (Ki) in test [1] is 1.55 nM; in test [3], 3.47 nM; in test [4], 0.309 nM. Further, the Selectivity ratio in test [2] was determined as 11; in [6], 2; in test [7], 0.5; in the test listed under Homo sapiens it was 5; in test [8], 9; in the test filed under Rattus norvegicus it was 19. In addition, the values for the negative-log Kb (pKb) in test [5] and in test [10] were 7.53 and 8.5, respectively. Besides, the Kb in test [9] was 58.9 nM.
With `COc1cc2nc(N3CCN(C(=O)c4ccco4)[C@H]4CCCC[C@H]43)nc(N)c2cc1OC` [CYCLAZOSIN], the Ki in test [1] is 3.24 nM; in test [3], 12.3 nM; in [4], 0.135 nM. Further, the Kb in test [11] is 17 nM. For the same compound, in test [10], the negative logarithm of the Kb (pKb) is 8.86.
For the compound `COc1ccc(C(=O)N2CCN(c3nc(N)c4cc(OC)c(OC)cc4n3)[C@@H]3CCCC[C@@H]32)o1`, the figures for the Ki in [1], in test [3] and in test [4] were 3.63 nM, 27.5 nM and 0.871 nM, respectively. Further, the Selectivity ratio came out at 32 in test [2]; 8 in [6]; 2 in test [7]; 4 in the test filed under Homo sapiens; 45 in test [8]; 28 in the test filed under Rattus norvegicus. For the same compound, the Kb in [11] is 141 nM; in [9], 89.1 nM. In addition, the pKb in test [10] was determined as 8.5.
For the compound `COc1cc2nc(N3CCN(C(=O)c4cccs4)[C@H]4CCCC[C@H]43)nc(N)c2cc1OC`, the Ki in test [1] is 2.34 nM; in test [3], 4.27 nM; in test [4], 0.24 nM. The Selectivity ratio in test [2] amounted to 18; in [6], 2; in test [7], 1; in the test listed under Homo sapiens, 10; in test [8], 22; in the test listed under Rattus norvegicus it was 21. Besides, the pKb in test [5] worked out at 7.44; in [10] it was 8.78. Further, in test [9], the Kb was 35.5 nM.
Turning to `COc1cc2nc(N3CCN(C(=O)c4ccccn4)[C@H]4CCCC[C@H]43)nc(N)c2cc1OC`, the Ki is 26.9 nM in test [1], 49 nM in test [3] and 5.89 nM in test [4]. Moreover, the Selectivity ratio in [2] turned out to be 8; in [6] it was 2; in test [7], 1; in the test filed under Homo sapiens, 5; in [8], 40; in the test listed under Rattus norvegicus, 33. Besides, the values for the pKb in test [5], in test [12] and in test [10] were 7.04, 7.12 and 8.64, respectively.
In the case of `COc1cc2nc(N3CCN(C(=O)c4ccc(C(C)=O)o4)[C@H]4CCCC[C@H]43)nc(N)c2cc1OC`, the Ki in test [1] was 7.41 nM; in [3] it was 25.7 nM; in test [4] it was 1.38 nM. In addition, the Selectivity ratio in test [2] was 19; in [6], 4; in test [7], 0.4; in the test listed under Homo sapiens, 5; in test [8], 12; in the test listed under Rattus norvegicus it was 29. For the same compound, the pKb in test [5] worked out at 7.05; in test [10] it was 8.13. Besides, the Kb in [9] was 214 nM.
Take `COc1cc2nc(N3CCN(C(=O)c4ccc[nH]4)[C@H]4CCCC[C@H]43)nc(N)c2cc1OC`: the inhibitory constant (Ki) in [1] was 1.51 nM; in test [3], 10.5 nM; in [4], 3.16 nM. The Selectivity ratio in test [2] was found to be 3; in [6], 7; in [7], 2; in the test filed under Homo sapiens, 0.5; in [8], 10; in the test listed under Rattus norvegicus it was 5. Also, the negative logarithm of the Kb (pKb) in test [5] was 7.06; in [12], 7.33; in test [10], 8.05.
